In brackets after ≈: the same amount, converted by molar mass. Activity calls are given as the source filed them. No cut-off for these calls is given here.
Experiments:
Mycobacterium avium = experiment: Antitubercular activity against Mycobacterium avium; assay type: functional
Caenorhabditis elegans = experiment: Nematicidal activity against Caenorhabditis elegans; assay type: functional, organism-based
[1] = target: Human immunodeficiency virus type 1 reverse transcriptase (Human immunodeficiency virus 1) (UniProt Q72547); experiment: Inhibition of HIV1 reverse transcriptase
[2] = target: Tyrosine-protein kinase Lck (Homo sapiens) (UniProt P06239); experiment: Inhibition of p56lck
Tyrosine-protein kinase Lck (Homo sapiens), sequence (P06239 2-509 limits assumed): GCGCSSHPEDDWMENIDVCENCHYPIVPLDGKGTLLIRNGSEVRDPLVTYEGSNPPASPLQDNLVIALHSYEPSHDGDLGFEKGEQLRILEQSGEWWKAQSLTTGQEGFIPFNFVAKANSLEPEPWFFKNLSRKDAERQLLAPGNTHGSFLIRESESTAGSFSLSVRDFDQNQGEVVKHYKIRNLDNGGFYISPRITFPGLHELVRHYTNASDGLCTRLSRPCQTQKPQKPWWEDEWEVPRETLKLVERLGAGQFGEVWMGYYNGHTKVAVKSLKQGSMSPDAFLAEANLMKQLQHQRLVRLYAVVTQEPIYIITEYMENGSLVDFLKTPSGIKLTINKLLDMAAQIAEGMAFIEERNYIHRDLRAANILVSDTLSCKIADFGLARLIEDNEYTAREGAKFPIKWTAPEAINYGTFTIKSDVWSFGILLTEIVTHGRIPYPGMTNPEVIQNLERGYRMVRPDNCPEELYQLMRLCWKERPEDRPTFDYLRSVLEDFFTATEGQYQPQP

Priestia megaterium = experiment: Antibacterial activity against Bacillus megaterium at 50 ug/disk; assay type: functional
Escherichia coli = experiment: Antibacterial activity against Escherichia coli at 50 ug/disk; assay type: functional
Microbotryum violaceum = experiment: Antifungal activity against Microbotryum violaceae assessed as no colonies of test organism growing within inhibition zone at 50 ug/disk; assay type: functional; conditions: read-out: IZ
[Chlorella] fusca [3] = Antialgal activity against Chlorella fusca assessed as no colonies of test organism growing within inhibition zone at 50 ug/disk; assay type: functional; conditions: Scenedesmus fuscus; read-out: IZ
[Chlorella] fusca [4] = Antialgal activity against Chlorella fusca; assay type: functional, Scenedesmus fuscus
[5] = Toxicity in Artemia salina at 0.5 mg/mL after 48 hrs; assay type: organism-based; conditions: in vivo, read-out: Activity
[6] = tested on: Mycobacterium tuberculosis; experiment: Antitubercular activity against Mycobacterium tuberculosis; assay type: functional
Lu1 = experiment: Cytotoxicity against human Lu1 cells; assay type: functional, cell-based
KB = experiment: Cytotoxicity against human KB cells; assay type: functional, cell-based
ZR-75-1 = experiment: Cytotoxicity against human ZR-75-1 cells; assay type: functional, cell-based

SMILES: C[C@]1(/C=C/Cl)C[C@](Cl)(CBr)[C@@H](Br)C[C@H]1Cl
- MIC (Mycobacterium avium): 34 µg/mL (≈ 85.1 µM)
- Activity (Caenorhabditis elegans): Active
- Activity [1]: inactive
- Activity [2]: inactive
- Activity (Priestia megaterium): inactive
- Activity (Escherichia coli): inactive
- zone of inhibition at 50 µg/disc (Microbotryum violaceum): 2 mm
- zone of inhibition at 50 µg/disc ([Chlorella] fusca [3]): 16 mm
- MIC ([Chlorella] fusca [4]): 7 µg
- mortality at 48 h, 0.5 mg/mL [5]: 100%
- MIC [6]: 32 µg/mL (≈ 80.1 µM)
- IC50 (Lu1): 12.9 µg/mL (≈ 32.3 µM)
- IC50 (KB): 13.3 µg/mL (≈ 33.3 µM)
- IC50 (ZR-75-1): 7.8 µg/mL (≈ 19.5 µM)
